In patent US20240210412A1, “SULFONYL-TRIAZOLE COMPOUNDS USEFUL AS LIGANDS AND INHIBITORS OF PROSTAGLANDIN REDUCTASE 2” (University of Virginia Patent Foundation, priority 2021, published 2024):

How the values were obtained:
Assay in all cases: SILAC LC-MS ABPP
Format in all cases: cell-based
Details in all cases: 25 μM 2 h, live DM93 cells
P51665 = target: T1, P51665 (Homo sapiens, UniProt P51665)
T1 construct: endogenous in cells; host or cells: DM93 cells (SILAC)
In short: (§1)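 Quantification uses SILAC ratios from LC-MS/MS of probe-modified tyrosine peptides. DM93 melanoma cells: heavy treated with 25 μM SuTEx ligand, light with DMSO (2 h, 37 °C), followed by HHS-475 probe at 100 μM for 2 h.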

P49721 = target: T2, P49721 (Homo sapiens, UniProt P49721)
T2 construct: endogenous in cells; host or cells: DM93 cells (SILAC)
In short: as §1

Q13151 = target: T3, Q13151 (Homo sapiens, UniProt Q13151)
T3 construct: performing SuTEx compound screening directly in cells; endogenous in cells; host or cells: DM93 cells (SILAC), soluble fraction
In short: as §1

Q6N069 = target: T4, Q6N069 (Homo sapiens, UniProt Q6N069)
T4 construct: performing SuTEx compound screening directly in cells; endogenous in cells; host or cells: DM93 cells (SILAC), soluble fraction
In short: as §1

P63241 = target: T5, P63241 (Homo sapiens, UniProt P63241)
T5 construct: performing SuTEx compound screening directly in cells; endogenous in cells; host or cells: DM93 cells (SILAC)
In short: as §1

Q9BXJ9 = target: T6, Q9BXJ9 (Homo sapiens, UniProt Q9BXJ9)
T6 construct: endogenous in cells; host or cells: DM93 cells (SILAC), treated live; soluble proteome analysed
In short: as §1

O15318 = target: T7, O15318 (Homo sapiens, UniProt O15318)
T7 construct: endogenous in cells; host or cells: DM93
In short: as §1

P15880 = target: T8, P15880 (Homo sapiens, UniProt P15880)
T8 construct: endogenous in cells; host or cells: DM93 cells (SILAC)
In short: as §1

Q13330 = target: T9, Q13330 (Homo sapiens, UniProt Q13330)
T9 construct: performing SuTEx compound screening directly in cells; endogenous in cells; host or cells: DM93 cells (SILAC), soluble fraction
In short: as §1

P26358 = target: T10, P26358 (Homo sapiens, UniProt P26358)
T10 construct: endogenous in cells; host or cells: DM93 (SILAC)
In short: as §1

Q15154 = target: T11, Q15154 (Homo sapiens, UniProt Q15154)
T11 construct: performing SuTEx compound screening directly in cells; endogenous in cells; host or cells: DM93 cells (SILAC), soluble fraction
In short: as §1

O75131 = target: T12, O75131 (Homo sapiens, UniProt O75131)
T12 construct: endogenous in cells; host or cells: DM93
In short: as §1

P62263 = target: T13, P62263 (Homo sapiens, UniProt P62263)
T13 construct: performing SuTEx compound screening directly in cells; endogenous in cells; host or cells: DM93 cells (SILAC)
In short: as §1

Q16836 = target: T14, Q16836 (Homo sapiens, UniProt Q16836)
T14 construct: performing SuTEx compound screening directly in cells; endogenous in cells; host or cells: DM93 cells (SILAC), soluble fraction
In short: as §1

Q13107 = target: T15, Q13107 (Homo sapiens, UniProt Q13107)
T15 construct: performing SuTEx compound screening directly in cells; endogenous in cells; host or cells: DM93 cells (SILAC), soluble fraction
In short: as §1

Q9BWT3 = target: T16, Q9BWT3 (Homo sapiens, UniProt Q9BWT3)
T16 construct: endogenous in cells; host or cells: DM93 cells (SILAC), treated live; soluble proteome analysed
In short: as §1

P39019 = target: T17, P39019 (Homo sapiens, UniProt P39019)
T17 construct: Probe-modified proteins from the soluble fraction were conjugated to a desthiobiotin-azide tag; endogenous in cells; host or cells: DM93 (SILAC)
In short: as §1

P19174 = target: T18, P19174 (Homo sapiens, UniProt P19174)
T18 construct: endogenous in cells; host or cells: DM93 (SILAC)
In short: as §1

T7 sequence (O15318 whole entry): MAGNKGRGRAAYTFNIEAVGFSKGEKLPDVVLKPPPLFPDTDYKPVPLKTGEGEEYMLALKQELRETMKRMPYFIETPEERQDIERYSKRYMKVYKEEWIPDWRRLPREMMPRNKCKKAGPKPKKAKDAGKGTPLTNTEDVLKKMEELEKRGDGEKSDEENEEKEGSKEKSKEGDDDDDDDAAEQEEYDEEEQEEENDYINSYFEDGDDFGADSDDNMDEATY
T4 sequence (Q6N069 whole entry): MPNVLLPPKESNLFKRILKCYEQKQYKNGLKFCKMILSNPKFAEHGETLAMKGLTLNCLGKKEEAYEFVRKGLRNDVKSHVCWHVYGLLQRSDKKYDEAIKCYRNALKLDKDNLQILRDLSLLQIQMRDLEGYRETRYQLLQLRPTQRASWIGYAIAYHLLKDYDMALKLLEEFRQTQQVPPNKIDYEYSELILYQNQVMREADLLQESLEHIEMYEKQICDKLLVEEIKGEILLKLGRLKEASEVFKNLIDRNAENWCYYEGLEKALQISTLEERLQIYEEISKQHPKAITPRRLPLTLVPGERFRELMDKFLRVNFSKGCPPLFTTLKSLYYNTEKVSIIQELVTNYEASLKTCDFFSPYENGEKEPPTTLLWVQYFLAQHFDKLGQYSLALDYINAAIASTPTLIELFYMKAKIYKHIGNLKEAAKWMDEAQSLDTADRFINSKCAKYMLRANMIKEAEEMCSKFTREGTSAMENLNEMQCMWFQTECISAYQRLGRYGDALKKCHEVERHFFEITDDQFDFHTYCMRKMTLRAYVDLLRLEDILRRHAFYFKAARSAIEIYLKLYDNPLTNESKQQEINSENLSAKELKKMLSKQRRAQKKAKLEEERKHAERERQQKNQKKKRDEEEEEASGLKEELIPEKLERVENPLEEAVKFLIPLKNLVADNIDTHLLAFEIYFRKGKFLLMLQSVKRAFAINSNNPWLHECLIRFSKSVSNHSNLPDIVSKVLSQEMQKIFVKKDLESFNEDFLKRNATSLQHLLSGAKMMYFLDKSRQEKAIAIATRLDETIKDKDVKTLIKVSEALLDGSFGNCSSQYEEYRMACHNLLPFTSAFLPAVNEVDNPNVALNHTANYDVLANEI
T16 sequence (Q9BWT3 whole entry): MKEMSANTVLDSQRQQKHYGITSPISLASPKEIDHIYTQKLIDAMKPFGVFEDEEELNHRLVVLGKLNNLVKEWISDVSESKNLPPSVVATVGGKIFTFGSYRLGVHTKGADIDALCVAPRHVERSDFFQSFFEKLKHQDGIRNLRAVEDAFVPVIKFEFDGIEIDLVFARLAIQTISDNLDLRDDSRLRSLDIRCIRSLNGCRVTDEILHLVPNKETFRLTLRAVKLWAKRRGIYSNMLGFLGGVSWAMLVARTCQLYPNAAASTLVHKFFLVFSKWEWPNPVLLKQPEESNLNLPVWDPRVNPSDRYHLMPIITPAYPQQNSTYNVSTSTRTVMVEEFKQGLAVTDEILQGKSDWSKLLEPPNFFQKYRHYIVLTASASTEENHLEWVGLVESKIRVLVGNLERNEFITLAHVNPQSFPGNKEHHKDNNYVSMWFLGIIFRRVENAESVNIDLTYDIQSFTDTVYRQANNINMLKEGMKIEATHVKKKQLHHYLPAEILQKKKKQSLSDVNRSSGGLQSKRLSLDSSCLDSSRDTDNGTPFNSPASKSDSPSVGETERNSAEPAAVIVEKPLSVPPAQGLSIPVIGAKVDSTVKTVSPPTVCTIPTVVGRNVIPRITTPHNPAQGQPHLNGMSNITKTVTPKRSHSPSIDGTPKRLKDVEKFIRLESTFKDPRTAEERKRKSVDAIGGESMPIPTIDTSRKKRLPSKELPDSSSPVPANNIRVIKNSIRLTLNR
T5 sequence (P63241 whole entry): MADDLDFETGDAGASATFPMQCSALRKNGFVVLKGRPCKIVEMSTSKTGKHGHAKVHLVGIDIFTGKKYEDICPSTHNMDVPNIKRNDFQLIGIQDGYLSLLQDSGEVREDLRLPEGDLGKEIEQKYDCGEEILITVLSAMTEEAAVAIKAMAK
T6 sequence (Q9BXJ9 whole entry): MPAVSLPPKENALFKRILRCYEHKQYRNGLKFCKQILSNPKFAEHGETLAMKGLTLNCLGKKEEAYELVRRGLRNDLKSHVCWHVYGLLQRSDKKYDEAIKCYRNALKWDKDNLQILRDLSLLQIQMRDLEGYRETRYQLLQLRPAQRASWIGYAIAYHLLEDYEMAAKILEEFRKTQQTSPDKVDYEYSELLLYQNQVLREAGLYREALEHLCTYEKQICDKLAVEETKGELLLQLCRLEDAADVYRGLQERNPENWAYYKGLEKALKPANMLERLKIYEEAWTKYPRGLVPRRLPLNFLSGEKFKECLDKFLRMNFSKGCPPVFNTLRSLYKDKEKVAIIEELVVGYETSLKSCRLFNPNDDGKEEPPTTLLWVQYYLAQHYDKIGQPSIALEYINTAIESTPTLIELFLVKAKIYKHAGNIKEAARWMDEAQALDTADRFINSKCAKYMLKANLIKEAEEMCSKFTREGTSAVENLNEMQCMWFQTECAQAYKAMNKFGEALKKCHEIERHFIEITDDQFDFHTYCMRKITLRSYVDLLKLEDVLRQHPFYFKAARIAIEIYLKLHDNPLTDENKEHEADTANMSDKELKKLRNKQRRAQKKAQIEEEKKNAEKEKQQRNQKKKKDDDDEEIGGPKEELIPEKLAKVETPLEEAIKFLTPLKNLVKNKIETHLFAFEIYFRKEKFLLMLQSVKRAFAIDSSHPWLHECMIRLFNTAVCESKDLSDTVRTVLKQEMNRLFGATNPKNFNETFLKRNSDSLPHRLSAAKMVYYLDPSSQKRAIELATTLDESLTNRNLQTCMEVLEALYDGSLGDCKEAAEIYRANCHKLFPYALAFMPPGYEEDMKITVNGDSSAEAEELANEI
T11 sequence (Q15154 whole entry): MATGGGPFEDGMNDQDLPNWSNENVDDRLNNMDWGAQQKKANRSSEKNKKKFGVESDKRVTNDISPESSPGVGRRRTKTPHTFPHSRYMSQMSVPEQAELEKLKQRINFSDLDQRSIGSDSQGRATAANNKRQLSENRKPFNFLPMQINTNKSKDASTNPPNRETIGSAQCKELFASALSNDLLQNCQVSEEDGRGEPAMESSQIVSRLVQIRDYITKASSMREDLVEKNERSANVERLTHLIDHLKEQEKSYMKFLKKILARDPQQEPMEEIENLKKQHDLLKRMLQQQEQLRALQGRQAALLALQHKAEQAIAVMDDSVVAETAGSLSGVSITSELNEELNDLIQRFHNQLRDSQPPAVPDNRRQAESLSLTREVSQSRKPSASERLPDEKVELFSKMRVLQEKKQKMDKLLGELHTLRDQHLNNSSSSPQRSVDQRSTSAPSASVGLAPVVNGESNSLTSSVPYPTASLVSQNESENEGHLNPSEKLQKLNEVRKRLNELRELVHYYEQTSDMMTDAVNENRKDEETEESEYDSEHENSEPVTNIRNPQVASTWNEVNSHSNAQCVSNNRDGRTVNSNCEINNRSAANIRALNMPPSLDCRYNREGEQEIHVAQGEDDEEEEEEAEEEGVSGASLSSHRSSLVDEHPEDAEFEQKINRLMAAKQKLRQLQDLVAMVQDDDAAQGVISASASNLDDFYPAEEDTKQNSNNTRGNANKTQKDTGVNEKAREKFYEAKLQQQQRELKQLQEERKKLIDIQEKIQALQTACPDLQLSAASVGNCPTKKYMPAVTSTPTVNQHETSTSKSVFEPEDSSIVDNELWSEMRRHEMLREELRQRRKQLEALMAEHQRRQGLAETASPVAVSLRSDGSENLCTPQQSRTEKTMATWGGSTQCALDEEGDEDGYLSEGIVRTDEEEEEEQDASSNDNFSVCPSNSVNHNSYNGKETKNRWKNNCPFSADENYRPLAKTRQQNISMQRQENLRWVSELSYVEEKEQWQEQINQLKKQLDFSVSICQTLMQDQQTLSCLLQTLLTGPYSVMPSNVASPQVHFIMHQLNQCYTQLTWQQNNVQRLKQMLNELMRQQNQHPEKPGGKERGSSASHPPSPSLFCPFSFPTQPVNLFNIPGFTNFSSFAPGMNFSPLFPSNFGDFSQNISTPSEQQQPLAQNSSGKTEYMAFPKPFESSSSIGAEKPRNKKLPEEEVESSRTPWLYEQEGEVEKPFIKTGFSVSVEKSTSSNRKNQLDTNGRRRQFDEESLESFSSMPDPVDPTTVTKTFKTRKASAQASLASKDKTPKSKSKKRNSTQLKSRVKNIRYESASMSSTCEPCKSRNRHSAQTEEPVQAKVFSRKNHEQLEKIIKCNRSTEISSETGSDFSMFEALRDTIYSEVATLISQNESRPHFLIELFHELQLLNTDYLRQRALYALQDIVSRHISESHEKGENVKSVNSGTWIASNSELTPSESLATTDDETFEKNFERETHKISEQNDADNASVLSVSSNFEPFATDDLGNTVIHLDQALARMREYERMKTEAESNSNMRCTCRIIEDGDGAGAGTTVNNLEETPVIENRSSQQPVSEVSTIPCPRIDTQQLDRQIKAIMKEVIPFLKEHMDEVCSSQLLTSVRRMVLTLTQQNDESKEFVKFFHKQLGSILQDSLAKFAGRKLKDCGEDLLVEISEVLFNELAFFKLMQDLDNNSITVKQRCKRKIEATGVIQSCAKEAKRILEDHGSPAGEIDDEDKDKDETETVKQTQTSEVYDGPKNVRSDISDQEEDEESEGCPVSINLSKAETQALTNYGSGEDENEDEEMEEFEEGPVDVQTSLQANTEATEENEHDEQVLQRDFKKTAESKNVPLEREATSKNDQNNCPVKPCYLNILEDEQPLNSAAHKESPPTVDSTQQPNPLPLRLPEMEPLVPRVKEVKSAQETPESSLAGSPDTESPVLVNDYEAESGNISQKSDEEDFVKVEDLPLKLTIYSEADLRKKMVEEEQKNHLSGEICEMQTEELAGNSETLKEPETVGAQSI

O=C(c1ccc(S(=O)(=O)n2cncn2)cc1)N1CCC(c2ccccc2)CC1 [HHS-0701, (4-((1H-1,2,4-triazol-1-yl)sulfonyl)phenyl)(4-phenylpiperidin-1-yl)methanone]
liganded tyrosine site 74 (P51665): HHS0701.Y (tyrosine sites that showed >80% reductions (SR >5) in probe labeling in cells treated with compounds (liganded sites)) | liganded tyrosine site 134 (P49721): HHS0701.Y (tyrosine sites that showed >80% reductions (SR >5) in probe labeling in cells treated with compounds (liganded sites))

O=C(NC1CC1)c1ccc(S(=O)(=O)n2cncn2)cc1 [HHS-0101, 4-((1H-1,2,4-triazol-1-yl)sulfonyl)-N-cyclopropylbenzamide]
liganded tyrosine site 180 (Q13151): HHS0101.Y (tyrosine sites that showed >80% reductions (SR >5) in probe labeling in cells treated with compounds (liganded sites)) | liganded tyrosine site 86 (Q6N069): HHS0101.Y|HHS0701.Y (tyrosine sites that showed >80% reductions (SR >5) in probe labeling in cells treated with compounds (liganded sites)) | liganded tyrosine site 127 (P63241): HHS0101.Y|HHS0201.Y|HHS0701.Y (tyrosine sites that showed >80% reductions (SR >5) in probe labeling in cells treated with compounds (liganded sites)) | liganded tyrosine site 86 (Q9BXJ9): HHS0101.Y|HHS0701.Y (tyrosine sites that showed >80% reductions (SR >5) in probe labeling in cells treated with compounds (liganded sites))

O=C(NC1CCCCC1)c1ccc(S(=O)(=O)n2cncn2)cc1 [HHS-0301, 4-((1H-1,2,4-triazol-1-yl)sulfonyl)-N-cyclohexylbenzamide]
liganded tyrosine site 43 (O15318): HHS0301.Y|HHS0401.Y (tyrosine sites that showed >80% reductions (SR >5) in probe labeling in cells treated with compounds (liganded sites)) | liganded tyrosine site 56 (O15318): HHS0301.Y (tyrosine sites that showed >80% reductions (SR >5) in probe labeling in cells treated with compounds (liganded sites)) | liganded tyrosine site 250 (P15880): HHS0301.Y (tyrosine sites that showed >80% reductions (SR >5) in probe labeling in cells treated with compounds (liganded sites)) | liganded tyrosine site 22 (Q13330): HHS0301.Y (tyrosine sites that showed >80% reductions (SR >5) in probe labeling in cells treated with compounds (liganded sites))

O=C(NCc1ccccc1)c1ccc(S(=O)(=O)n2cncn2)cc1 [HHS-0401, 4-((1H-1,2,4-triazol-1-yl)sulfonyl)-N-benzylbenzamide]
liganded tyrosine site 367 (P26358): HHS0401.Y (tyrosine sites that showed >80% reductions (SR >5) in probe labeling in cells treated with compounds (liganded sites)) | liganded tyrosine site 1424 (Q15154): HHS0401.Y|HHS0701.Y (tyrosine sites that showed >80% reductions (SR >5) in probe labeling in cells treated with compounds (liganded sites)) | liganded tyrosine site 203 (O75131): HHS0401.Y (tyrosine sites that showed >80% reductions (SR >5) in probe labeling in cells treated with compounds (liganded sites))

O=C(NCC1CC1)c1ccc(S(=O)(=O)n2cncn2)cc1 [HHS-0201, 4-((1H-1,2,4-triazol-1-yl)sulfonyl)-N-(cyclopropylmethyl)benzamide]
liganded tyrosine site 72 (P62263): HHS0201.Y|HHS0301.Y (tyrosine sites that showed >80% reductions (SR >5) in probe labeling in cells treated with compounds (liganded sites)) | liganded tyrosine site 264 (Q16836): HHS0201.Y|HHS0401.Y|HHS0701.Y (tyrosine sites that showed >80% reductions (SR >5) in probe labeling in cells treated with compounds (liganded sites)) | liganded tyrosine site 192 (Q13107): HHS0201.Y|HHS0301.Y (tyrosine sites that showed >80% reductions (SR >5) in probe labeling in cells treated with compounds (liganded sites)) | liganded tyrosine site 326 (Q9BWT3): HHS0201.Y|HHS0701.Y (tyrosine sites that showed >80% reductions (SR >5) in probe labeling in cells treated with compounds (liganded sites)) | liganded tyrosine site 54 (P39019): HHS0201.Y (tyrosine sites that showed >80% reductions (SR >5) in probe labeling in cells treated with compounds (liganded sites)) | liganded tyrosine site 472 (P19174): HHS0201.Y (tyrosine sites that showed >80% reductions (SR >5) in probe labeling in cells treated with compounds (liganded sites))
